Experimental data: PubChem BioAssay (NCI)
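Protocol summary: plate cells (96-well), add compound at 5 concentrations, incubate 48 h, interpolate endpoints linearly. GI50 marks 50% less growth. TGI: total growth inhibition.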

Key:
Experiment in all cases: NCI-60 cell line screen, 48 h
[1] = tested on: KM12 colon
[2] = tested on: CAKI-1 renal
[3] = tested on: SNB-19 CNS
[4] = tested on: HT29 colon
[5] = tested on: SW-620 colon
[6] = tested on: PC-3 prostate
[7] = tested on: COLO 205 colon
[8] = tested on: OVCAR-3 ovarian
[9] = tested on: NCI/ADR-RES ovarian
[10] = tested on: NCI-H226 lung

In the case of `CC(=O)O[C@H]1C(=O)[C@@]2(C)[C@H]([C@H](OC(=O)c3ccccc3)[C@@]3(O)C[C@H](O)C(C)=C1C3(C)C)[C@]1(OC(C)=O)CO[C@@H]1C[C@@H]2O`, the TGI [1] is reported as > 100 µM, the TGI [2] is reported as > 100 µM and the TGI [3] is reported as > 100 µM. The TGI [4] was 86.6 µM, the TGI [5] was > 100 µM and the TGI [6] was > 100 µM. The TGI [7] was 81.5 µM, the TGI [8] was > 100 µM and the TGI [9] was > 100 µM. The TGI [10] was > 100 µM.

`O=C(c1ccccc1)c1c(CC(O)c2ccccc2)n(C(=O)c2ccccc2)c2ccccc12` (stereo unspecified) was tested, and the TGI [1] was > 100 µM, the TGI [2] was > 100 µM and the TGI [3] was > 100 µM. The TGI [4] was > 100 µM, the TGI [5] was > 100 µM and the TGI [7] was > 100 µM. The TGI [8] was > 100 µM and the TGI [10] was > 100 µM.

`NNC(=O)N/N=C1\C(=O)N(c2nccs2)C(=O)C(=O)C1c1nc2ccccc2s1` (stereo unspecified) was tested, and the TGI [1] was > 100 µM, the TGI [2] was > 100 µM and the TGI [3] was > 100 µM. For the same molecule, the TGI [4] was > 100 µM, the TGI [5] was > 100 µM and the TGI [7] was > 100 µM. The TGI [8] was > 100 µM and the TGI [10] was > 100 µM.

For `CCCCCCCCCOC(=S)NCCCCC`, the TGI [2] was 73.7 µM, the TGI [3] was > 100 µM and the TGI [4] was 63.4 µM. The TGI [5] was > 100 µM.

For `CCc1nc2cc(/C=C/C(=O)NO)ccc2c(=O)n1CCc1ccc(F)cc1`, the GI50 [1] was 2.2 µM, the TGI [1] was 14.3 µM and the GI50 [2] was 2.27 µM. For the same molecule, the TGI [2] was 6.12 µM, the GI50 [3] was 1.82 µM and the TGI [3] was 5.34 µM. It also gave a GI50 [4] of 1.49 µM, a TGI [4] of 9.06 µM and a GI50 [6] of 2.92 µM. For the same molecule, the TGI [6] was > 100 µM, the GI50 [7] was 1.26 µM and the TGI [7] was 3.65 µM. For the same molecule, the GI50 [9] was 0.577 µM, the TGI [9] was 3.15 µM and the GI50 [10] was 1.71 µM. The TGI [10] was 4.59 µM.

For `COC(=O)C(C(=O)C(=O)Nc1ccc(OC)cc1[N+](=O)[O-])c1nc2cc(C)c(C)cc2[nH]c1=O` (stereo unspecified), the TGI [2] was > 100 µM, the TGI [3] was > 100 µM and the TGI [4] was > 100 µM. The TGI [5] was > 100 µM, the TGI [7] was > 100 µM and the TGI [8] was > 100 µM. For the same molecule, the TGI [10] was > 100 µM.

For `COC(=O)c1ccc2c(c1)c1c(C)c3ccncc3c(C)c1n2C`, the GI50 [1] was 0.262 µM, the TGI [1] was > 100 µM and the GI50 [3] was 0.206 µM. For the same molecule, the TGI [3] was > 100 µM, the GI50 [4] was 0.133 µM and the TGI [4] was > 100 µM. It also gave a GI50 [5] of 0.0658 µM, a TGI [5] of 58.3 µM and a GI50 [6] of 0.3 µM. For the same molecule, the TGI [6] was > 100 µM, the GI50 [7] was 0.113 µM and the TGI [7] was > 100 µM. The GI50 [8] was 0.536 µM, the TGI [8] was 47.2 µM and the GI50 [9] was 0.411 µM. For the same molecule, the TGI [9] was 62.7 µM, the GI50 [10] was 0.352 µM and the TGI [10] was 13.2 µM.

`CN(C)CCNC(=O)c1cccc2ncc(-c3ccccc3)nc12` was tested, and the TGI [1] was 29.4 µM, the TGI [2] was > 68.6 µM and the TGI [3] was 78.7 µM. For the same molecule, the TGI [4] was 52.4 µM, the TGI [5] was 63.5 µM and the TGI [7] was 15.5 µM. The TGI [8] was 66.8 µM and the TGI [10] was 31.3 µM.

`Cc1c(C2Cc3ccccc3N2)c2ccccc2n1C` (stereo unspecified) was tested, and the TGI [1] was > 100 µM, the TGI [2] was > 100 µM and the TGI [3] was > 100 µM. The TGI [4] was > 100 µM, the TGI [5] was > 100 µM and the TGI [7] was > 100 µM. The TGI [8] was > 100 µM and the TGI [10] was > 100 µM.

In the case of `CCOC(=O)c1c2cccccc2n2c(=O)cc(C)nc12`, the TGI [1] is reported as > 100 µM, the TGI [2] is reported as > 100 µM and the TGI [3] is reported as > 100 µM. For the same molecule, the TGI [4] was > 100 µM, the TGI [5] was > 100 µM and the TGI [7] was > 100 µM. For the same molecule, the TGI [8] was > 100 µM and the TGI [10] was > 100 µM.

In the case of `CCCCCCCCCCCCCC(=O)OCC1OC(n2cc(F)c(=O)[nH]c2=O)C(N)C(OC(=O)CCCCCCCCCCCCC)C1O` (stereo unspecified), the TGI [1] is reported as > 100 µM, the TGI [2] is reported as > 100 µM and the TGI [3] is reported as > 100 µM. For the same molecule, the TGI [4] was > 100 µM, the TGI [5] was > 100 µM and the TGI [7] was > 100 µM. For the same molecule, the TGI [8] was > 100 µM.

`COc1cc(CC(C(=O)O)C(=O)O)c(OC)cc1CC(C(=O)O)C(=O)O` was tested, and the TGI [1] was > 100 µM, the TGI [2] was > 100 µM and the TGI [3] was > 100 µM. For the same molecule, the TGI [4] was > 100 µM, the TGI [5] was > 100 µM and the TGI [7] was > 100 µM. The TGI [8] was > 100 µM and the TGI [10] was > 100 µM.

For `CCOC(=O)C1SC(=Nc2ccc(Cl)cc2C)N=C1C` (stereo unspecified), the TGI [1] was 35.1 µM, the TGI [2] was 79.9 µM and the TGI [3] was > 100 µM. For the same molecule, the TGI [4] was 30.3 µM, the TGI [5] was 53.7 µM and the TGI [7] was 31 µM. The TGI [8] was 48.2 µM and the TGI [10] was 63.5 µM.

`O=C(O)CC1CC=C[C@H]2c3cc4c(cc3C(=O)NC12)OCO4` (stereo partly specified) was tested, and the TGI [1] was > 75 µM, the TGI [3] was > 75 µM and the TGI [5] was > 75 µM. For the same molecule, the TGI [7] was > 75 µM, the TGI [8] was > 75 µM and the TGI [10] was > 75 µM.

`COC(=O)C(=O)C(C(=O)C(=O)Nc1ccc(C)cc1)c1nc2ccc(C(=O)c3ccccc3)cc2[nH]c1=O` (stereo unspecified) was tested, and the TGI [1] was > 100 µM, the TGI [2] was > 100 µM and the TGI [3] was > 100 µM. For the same molecule, the TGI [4] was > 100 µM, the TGI [5] was > 100 µM and the TGI [6] was > 100 µM. The TGI [8] was > 100 µM, the TGI [9] was > 100 µM and the TGI [10] was > 100 µM.

In the case of `CN(O)C(=S)c1ccccc1`, the TGI [1] is reported as 31.8 µM, the TGI [2] is reported as 81.3 µM and the TGI [3] is reported as > 100 µM. The TGI [5] was 14.6 µM, the TGI [6] was > 59.1 µM and the TGI [7] was 1.75 µM. For the same molecule, the TGI [8] was 34.8 µM, the TGI [9] was 7.88 µM and the TGI [10] was > 100 µM.

For `CC(=O)C1CCC2C3CC=C4CC(SC(=N)N)CCC4(C)C3CCC12C` (stereo unspecified), the GI50 [2] was 1.68 µM, the TGI [2] was 4.24 µM and the GI50 [3] was 3.12 µM. It also gave a TGI [3] of 32.1 µM, a GI50 [4] of 0.809 µM and a TGI [4] of 2.14 µM. It also gave a GI50 [5] of 1.62 µM, a TGI [5] of 3.16 µM and a GI50 [6] of 1.55 µM. For the same molecule, the TGI [6] was 4.2 µM, the GI50 [7] was 1.6 µM and the TGI [7] was 2.94 µM. It also gave a GI50 [9] of 2 µM, a TGI [9] of 5.28 µM and a GI50 [10] of 2.9 µM. It also gave a TGI [10] of 9.26 µM.

In the case of `COc1ccc(/C=C2\CC(C)CC3C2=NN(c2ccccc2)C3c2ccc(OC)c(OC)c2)cc1OC` (stereo unspecified), the GI50 [2] is reported as 6.47 µM, the TGI [2] is reported as > 100 µM and the GI50 [3] is reported as 7.39 µM. For the same molecule, the TGI [3] was > 100 µM, the GI50 [4] was 3.18 µM and the TGI [4] was 16.1 µM. For the same molecule, the GI50 [5] was 3.96 µM, the TGI [5] was > 100 µM and the GI50 [6] was 6.32 µM. The TGI [6] was > 100 µM, the GI50 [7] was 4.67 µM and the TGI [7] was > 100 µM. The GI50 [8] was 3.71 µM, the TGI [8] was > 100 µM and the GI50 [9] was 2.71 µM. It also gave a TGI [9] of 9.51 µM, a GI50 [10] of 3.09 µM and a TGI [10] of 9.75 µM.

`COCOCC[C@@H]1CC=CC(NC(=O)OCc2ccccc2)C1/C=C/C(=O)CCC1OCCO1` (stereo partly specified) was tested, and the TGI [1] was 45.4 µM, the TGI [2] was > 100 µM and the TGI [3] was > 100 µM. The TGI [4] was > 100 µM, the TGI [5] was 59.5 µM and the TGI [7] was 37.9 µM. For the same molecule, the TGI [8] was > 76.1 µM and the TGI [10] was > 100 µM.

Work on `C=C1C(=O)OC2C1C(OC(=O)/C(C)=C\C)CC1(CO1)C1C(O)C=C(C)C21O` (stereo unspecified) yielded a TGI [1] of 24.4 µM, a TGI [2] of 6.36 µM and a TGI [3] of 35.2 µM. The TGI [4] was 31.4 µM, the TGI [5] was 3.34 µM and the TGI [7] was 2.62 µM. The TGI [8] was 11.3 µM.

`OC1CCC[C@@H]1Sc1ccccc1` (stereo partly specified) was tested, and the TGI [1] was > 100 µM, the TGI [2] was > 100 µM and the TGI [3] was > 100 µM. The TGI [5] was > 100 µM, the TGI [7] was > 100 µM and the TGI [8] was > 100 µM.

Work on `Cn1nc(-c2ccccc2)c(C(=O)/C=C/c2ccc(F)cc2)c(N2CCOCC2)c1=O` yielded a TGI [3] of 31.8 µM, a TGI [4] of 30.2 µM and a TGI [5] of 47.1 µM. For the same molecule, the TGI [7] was 34.6 µM.
